Our source for the IC50 values is patent US20260365671A1, “HETEROCYCLIC COMPOUND” (Takeda Pharmaceutical Company Limited, priority 2022, published 2026).

For one experiment, the target named is T1, NLRP3 inflammasome (Homo sapiens, UniProt Q96P20).
T1 construct: IL-1beta HTRF
The experiment can be described thus: IL-1β TR-FRET assay (THP-1 cells differentiated to macrophages with IFN-γ, LPS primed, ATP activated; HTRF). It is filed as cell-based. The settings on record: THP-1 macrophages, 50 ng/mL LPS priming, compound 30 min, 20 mM ATP 2 hours. The protocol: (§1) The biological activity of Compound (I) with respect to NLRP3 was determined using the following in vitro methods.
IL-1β TR-FRET Assay (Reported as IC50)
Monocytic THP-1 cells (ATCC: TIB-202) were maintained in accordance with the provider's instructions in RPMI media (Life Technologies, Cat #A10491-01); RPMI was supplemented with 10% heat inactivated fetal bovine serum (Corning, Cat #35-010-CV). The cells were differentiated into macrophages by the addition of 25 ng/mL IFN-γ (PeproTech, Cat #AF300-02-100UG) for 24 hours at 37 °C/5% CO2. Media was exchanged with fresh media with no FBS, and the cells were treated with 50 ng/mL LPS (priming step) (LPS-EK: Invivogen, Cat #tlrl-peklps). The cells were plated at 240,000 cells per well in 384-well flat-bottom cell culture plates (FALCON, Cat #353962) and were incubated for 24 hours at 37 °C/5% CO2. Compounds were serially diluted (half log dilutions) with DMSO and were finally diluted with Media with no FBS. The compounds were added to the cells in 384-well plates (added in 1:3) and then the plates were incubated for 30 minutes at 37 °C/5% CO2. The NLRP3 inflammasome was activated with the addition of 20 mM ATP (Sigma Cat #A3377-25G) and the cells were incubated for 2 hours at 37 °C/5% CO2. At the end of the incubation period, 30 μL supernatant was transferred to another 384-well plate and mixed on a plate shaker for 1 minutes. The supernatant was mixed with HTRF Antibody (Human IL1 beta kit, Cisbio, 62HIL1BPEH) in assay plates (Greiner Bio-One, Cat #784075) and the assay plates were incubated in shading box at room temperature for 16-24 hours. HTRF signal was measured by EnVision (Perkinelmer) in accordance with the manufacturer's instructions.
(§2) The IC50 values were calculated from a plot of percentage of inhibition versus the inhibitor concentration by a logistics curve fit according to: Y=[Bottom+(Top−Bottom)]/(1+10^[(Log IC50−X)·Hill Slope], where Y is the % inhibition at the inhibitor concentration, X, “Bottom” is the lowest inhibition value, i.e., 0%, “Top” is the maximum inhibition value, i.e., 100%, and the “Hill Slope” describes the slope of the sigmoidal curve between the “Bottom” and “Top” values. The curve fitting was conducted with XLfit (ver. 5.5.0.5, ID Business Solutions Limited) or internally developed software.
(§3) Table 2 lists in vitro biological assay data (IL-1β and TNF-α) for the compounds shown in the examples. These assays are described in the section entitled Biological Activity, above.
In general terms: TR-FRET usually uses a lanthanide donor and a delayed reading to cut background.

Another experiment deals with NF-κB pathway. The experiment can be described thus: TNF-α assay (THP-1 cells differentiated to macrophages with IFN-γ, NF-κB pathway activated with LPS; ELISA). It is filed as cell-based, Human. As to conditions: Homo sapiens, THP-1, THP-1 macrophages, compound 30 min, 50 ng/mL LPS 3 hours. The protocol: as §1
TNF-α Assay (Reported as IC50)
Monocytic THP-1 cells (ATCC: TIB-202) were maintained in accordance with the provider's instructions in RPMI media (Life Technologies, Cat #A10491-01); RPMI was supplemented with 10% heat inactivated fetal bovine serum (Hyclone Cat #SH30396.03). The cells were differentiated into macrophages by the addition of 25 ng/mL IFN-γ for 24 hours at 37 °C/5% CO2. Media was exchanged with fresh media with no FBS. The cells were plated at 40,000 cells per well in 384-well flat-bottom cell culture plates (Costar 3764) containing compounds (added in 1:1000) in a 1:3.16 serial dilution series in DMSO and were incubated for 30 minutes at 37 °C/5% CO2. The NF-κB pathway was activated with the addition of 50 ng/mL LPS and the cells were incubated for 3 hours at 37 °C/5% CO2. At the end of the incubation period, supernatant ([…]) was removed, and […] were monitored using an ELISA (Human TNF-α ELISA, R&D systems, Cat #DY210) according to the manufacturer's instructions.
as §2, §3

T1 sequence (Q96P20 whole entry): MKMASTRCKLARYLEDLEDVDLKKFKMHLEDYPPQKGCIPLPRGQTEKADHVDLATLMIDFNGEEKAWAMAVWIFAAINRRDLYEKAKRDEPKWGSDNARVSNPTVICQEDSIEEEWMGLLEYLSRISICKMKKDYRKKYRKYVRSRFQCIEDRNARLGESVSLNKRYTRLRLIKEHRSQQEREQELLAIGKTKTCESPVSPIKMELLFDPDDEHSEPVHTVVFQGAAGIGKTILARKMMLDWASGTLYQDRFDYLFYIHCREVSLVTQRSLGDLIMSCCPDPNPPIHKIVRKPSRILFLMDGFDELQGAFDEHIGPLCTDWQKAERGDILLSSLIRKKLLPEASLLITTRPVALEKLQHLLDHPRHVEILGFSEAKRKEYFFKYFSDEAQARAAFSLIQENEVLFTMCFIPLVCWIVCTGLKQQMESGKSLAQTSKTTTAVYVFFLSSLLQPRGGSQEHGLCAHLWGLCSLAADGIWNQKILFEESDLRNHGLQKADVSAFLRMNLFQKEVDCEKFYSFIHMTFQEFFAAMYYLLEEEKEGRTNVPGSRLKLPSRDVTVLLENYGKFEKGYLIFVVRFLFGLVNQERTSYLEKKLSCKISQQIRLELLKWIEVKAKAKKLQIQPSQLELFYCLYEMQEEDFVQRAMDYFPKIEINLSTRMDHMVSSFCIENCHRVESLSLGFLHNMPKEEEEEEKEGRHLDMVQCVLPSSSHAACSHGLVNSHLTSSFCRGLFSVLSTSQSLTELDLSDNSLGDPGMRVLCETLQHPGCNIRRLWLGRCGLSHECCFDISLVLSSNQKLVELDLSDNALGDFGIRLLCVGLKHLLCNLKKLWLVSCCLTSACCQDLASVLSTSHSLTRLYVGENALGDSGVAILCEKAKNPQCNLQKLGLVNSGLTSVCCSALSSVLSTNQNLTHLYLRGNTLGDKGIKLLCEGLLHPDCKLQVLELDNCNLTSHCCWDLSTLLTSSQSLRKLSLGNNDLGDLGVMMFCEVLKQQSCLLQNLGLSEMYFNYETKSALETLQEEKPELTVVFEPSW

As usually defined, the IC50 is the midpoint of a concentration-inhibition curve. The low end stands for inhibition by little substance, the high end for a need for much substance. `Cc1cc(F)cc(O)c1-n1cc2sc(N[C@@H]3CCCC[C@H]3O)nc2n1` [Example 6, 5-fluoro-2-(5-{[(1R,2R)-2-hydroxycyclohexyl]amino}-2H-pyrazolo[3,4-d][1,3]thiazol-2-yl)-3-methylphenol]: the figures for the half-maximal inhibitory concentration (IC50) on NLRP3 inflammasome and in the experiment on NF-κB pathway were 980 nM and more than 10000 nM, respectively.
In the case of `CCN1C[C@H](F)C[C@@H](Nc2nc3nn(-c4c(C)cc(C)cc4O)cc3s2)C1` [Example 7, 2-(5-{[(3R,5R)-1-ethyl-5-fluoropiperidin-3-yl]amino}-2H-pyrazolo[3,4-d][1,3]thiazol-2-yl)-3,5-dimethylphenol], the half-inhibitory concentration (IC50) on NLRP3 inflammasome was 13 nM; with NF-κB pathway, more than 30000 nM.
Regarding `CN1C[C@H](F)C[C@@H](Nc2nc3nn(-c4c(O)cccc4Cl)cc3s2)C1` [Example 8, 3-chloro-2-(5-{[(3R,5R)-5-fluoro-1-methylpiperidin-3-yl]amino}-2H-pyrazolo[3,4-d][1,3]thiazol-2-yl)phenol], the IC50 at NLRP3 inflammasome is 290 nM; with NF-κB pathway, more than 30000 nM.
In the case of `Cc1cc(Cl)cc(O)c1-n1cc2sc(N[C@@H]3C[C@@H](F)CN(C)C3)nc2n1` [Example 9, 5-chloro-2-(5-{[(3R,5R)-5-fluoro-1-methylpiperidin-3-yl]amino}-2H-pyrazolo[3,4-d][1,3]thiazol-2-yl)-3-methylphenol], the IC50 was 14 nM on NLRP3 inflammasome and more than 30000 nM in the experiment with NF-κB pathway.
Take `Cc1cc(O)c(-n2cc3sc(N[C@@H]4C[C@@H](F)CN(C)C4)nc3n2)c(Cl)c1` [Example 11, 3-chloro-2-(5-{[(3R,5R)-5-fluoro-1-methylpiperidin-3-yl]amino}-2H-pyrazolo[3,4-d][1,3]thiazol-2-yl)-5-methylphenol]: the 50% inhibitory concentration (IC50) against NLRP3 inflammasome was 37 nM; in the experiment with NF-κB pathway, more than 30000 nM.
`Cc1cc(F)cc(O)c1-n1cc2sc(N[C@@H]3CCCN(C4CC4)C3)nc2n1` [Example 12, 2-(5-{[(3R)-1-cyclopropylpiperidin-3-yl]amino}-2H-pyrazolo[3,4-d][1,3]thiazol-2-yl)-5-fluoro-3-methylphenol]: the results for the 50% inhibitory concentration (IC50) at NLRP3 inflammasome and in the experiment with NF-κB pathway were 3.6 nM and more than 10000 nM, respectively.
As to `Cc1cc(C(F)F)cc(O)c1-n1cc2sc(N[C@@H]3C[C@@H](F)CN(C)C3)nc2n1` [Example 13, 5-(difluoromethyl)-2-(5-{[(3R,5R)-5-fluoro-1-methylpiperidin-3-yl]amino}-2H-pyrazolo[3,4-d][1,3]thiazol-2-yl)-3-methylphenol], the figures for the IC50 against NLRP3 inflammasome and in the experiment on NF-κB pathway were 25 nM and more than 30000 nM, respectively.
Take `CCN1C[C@H](F)C[C@@H](Nc2nc3nn(-c4c(C)cc(C(F)F)cc4O)cc3s2)C1` [Example 16, 5-(difluoromethyl)-2-(5-{[(3R,5R)-1-ethyl-5-fluoropiperidin-3-yl]amino}-2H-pyrazolo[3,4-d][1,3]thiazol-2-yl)-3-methylphenol]: the half-maximal inhibitory concentration (IC50) at NLRP3 inflammasome is 11 nM; in the experiment with NF-κB pathway it was more than 30000 nM.
For `CN1C[C@H](F)C[C@@H](Nc2nc3nn(-c4c(O)cc(F)cc4Cl)cc3s2)C1` [Example 17, 3-chloro-5-fluoro-2-(5-{[(3R,5R)-5-fluoro-1-methylpiperidin-3-yl]amino}-2H-pyrazolo[3,4-d][1,3]thi-azol-2-yl)phenol], the figures for the IC50 at NLRP3 inflammasome and in the experiment on NF-κB pathway were 110 nM and more than 30000 nM, respectively.
The matching figures for `Oc1cc(F)cc(Cl)c1-n1cc2sc(N[C@@H]3CCCN(C4CC4)C3)nc2n1` [Example 18, 3-chloro-2-(5-{[(3R)-1-cyclopropyl-piperidin-3-yl]amino}-2H-pyrazolo[3,4-d][1,3]thiazol-2-yl)-5-fluorophenol]: 11 nM and more than 30000 nM.
Turning to `CO[C@H]1C[C@@H](Nc2nc3nn(-c4c(C)cc(C)cc4O)cc3s2)CN(C)C1` [Example 19, 2-(5-{[(3R,5S)-5-methoxy-1-methylpiperidin-3-yl]amino}-2H-pyrazolo[3,4-d][1,3]thiazol-2-yl)-3,5-dimethylphenol], the values for the IC50 against NLRP3 inflammasome and in the experiment with NF-κB pathway were 5400 nM and more than 30000 nM, respectively.
For the compound `CCc1cc(C)cc(O)c1-n1cc2sc(N[C@@H]3C[C@@H](F)CN(C)C3)nc2n1` [Example 20, 3-ethyl-2-(5-{[(3R,5R)-5-fluoro-1-methylpiperidin-3-yl]amino}-2H-pyrazolo[3,4-d][1,3]thiazol-2-yl)-5-methylphenol], the results for the half-inhibitory concentration (IC50) on NLRP3 inflammasome and in the experiment with NF-κB pathway were 9.2 nM and more than 30000 nM, respectively.
`CCN1C[C@H](F)C[C@@H](Nc2nc3nn(-c4c(O)cc(F)cc4C(F)F)cc3s2)C1` [Example 24, 3-(difluoromethyl)-2-(5-{[(3R,5R)-1-ethyl-5-fluoropiperidin-3-yl]amino}-2H-pyrazolo[3,4-d][1,3]thiazol-2-yl)-5-fluorophenol]: the IC50 was 16 nM against NLRP3 inflammasome and more than 10000 nM in the experiment on NF-κB pathway.
On to `Cc1cc(C)c(-n2cc3sc(N[C@H]4CC[C@H](O)CC4)nc3n2)c(O)c1` [Example 25, 2-{5-[(trans-4-hydroxycyclo-hexyl)amino]-2H-pyrazolo[3,4-d][1,3]thiazol-2-yl}-3,5-dimethylphenol], for which the concentration for half-maximal inhibition (IC50) is 350 nM against NLRP3 inflammasome and more than 10000 nM in the experiment with NF-κB pathway.
Consider `Cc1cc(C)c(-n2cc3sc(N[C@H]4CC[C@@H](O)CC4)nc3n2)c(O)c1` [Example 26, 2-{5-[(cis-4-hydroxycyclohexyl)amino]-2H-pyrazolo[3,4-d][1,3]thiazol-2-yl}-3,5-dimethylphenol], for which the concentration for half-maximal inhibition (IC50) against NLRP3 inflammasome is 830 nM; in the experiment on NF-κB pathway, more than 10000 nM.
In the case of `Cc1cc(C)c(-n2cc3sc(N[C@@H]4CCCN(C(=O)OCC(Cl)(Cl)Cl)C4)nc3n2)c(O)c1` [Example 27, 2,2,2-trichloroethyl (3R)-3-{[2-(2-hydroxy-4,6-dimethylphenyl)-2H-pyrazolo[3,4-d][1,3]thiazol-5-yl]amino}piperidine-1-carboxylate], the IC50 on NLRP3 inflammasome stood at 620 nM; in the experiment on NF-κB pathway, 6300 nM.
Regarding `Cc1cc(C)c(-n2cc3sc(NC4CCCC4O)nc3n2)c(O)c1` (stereo not drawn) [Example 28, 2-{5-[(2-hydroxycyclopentyl)amino]-2H-pyrazolo[3,4-d][1,3]thiazol-2-yl}-3,5-dimethylphenol], the IC50 was 480 nM at NLRP3 inflammasome and more than 10000 nM with NF-κB pathway.
For `Cc1cc(C)c(-n2cc3sc(NC4CCCC(O)C4)nc3n2)c(O)c1` (stereo not drawn) [Example 29, 2-{5-[(3-hydroxycyclohexyl)amino]-2H-pyrazolo[3,4-d][1,3]thiazol-2-yl}-3,5-dimethylphenol], the half-inhibitory concentration (IC50) against NLRP3 inflammasome was 540 nM; in the experiment with NF-κB pathway it was more than 10000 nM.
`Cc1cc(C)c(-n2cc3sc(NC4CC5(CC(O)C5)C4)nc3n2)c(O)c1` (stereo not drawn) [Example 30, 6-{[2-(2-hydroxy-4,6-dimethylphenyl)-2H-pyrazolo[3,4-d][1,3]thiazol-5-yl]amino}spiro[3.3]heptan-2-ol]: the results for the IC50 against NLRP3 inflammasome and in the experiment with NF-κB pathway were 830 nM and more than 10000 nM, respectively.
`Cc1cc(C)c(-n2cc3sc(N[C@H]4C[C@@](C)(O)C4)nc3n2)c(O)c1` [Example 31, 2-{5-[(cis-3-hydroxy-3-methylcyclobutyl)amino]-2H-pyrazolo[3,4-d][1,3]thiazol-2-yl}-3,5-dimethylphenyl]: the IC50 against NLRP3 inflammasome is 650 nM; in the experiment on NF-κB pathway, more than 30000 nM.
For `Cc1cc(C)c(-n2cc3sc(N[C@H]4C[C@](C)(O)C4)nc3n2)c(O)c1` [Example 32, 2-{5-[(trans-3-hydroxy-3-methylcyclobutyl)amino]-2H-pyrazolo[3,4-d][1,3]thiazol-2-yl}-3,5-dimethylphenol], the IC50 was 680 nM at NLRP3 inflammasome and more than 10000 nM with NF-κB pathway.
